ChEMBL document CHEMBL1201862, “PubChem BioAssay data set” (2004)
Calls of active or inactive are those of the source.

Tests used:
[1] = target: Beta-2 adrenergic receptor (Homo sapiens, UniProt P07550); assay: beta2AR agonists driving receptor internalization, dose response, cell-based, FAP fluorogen, flow cytometry, cherry pick 1 (AID 588763); format: functional
[2] = target: 5-hydroxytryptamine receptor 2A (Mus musculus, UniProt P35363); format: functional, cell-based;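 further: CHO-K1 cells with tagged receptor and beta-arrestin; agonist potency measured as compound-induced activation of the receptor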
Mu-type opioid receptor = Mu-type opioid receptor (Homo sapiens, UniProt P35372); format: functional, cell-based;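 further: U2OS cells with beta-arrestin recruitment to OPRM1 by beta-gal complementation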
[3] = inhibitors of clade B AD8 Env fusion, dose response, cell-based, cherry-pick (AID 652062); format: functional;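 further: luciferase signal from cell-cell fusion driven by HIV-1 clade B AD8 Env; potency is for inhibitors of fusion seen as a drop in luminescence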
[4] = target: T1, V-type proton ATPase subunit c' (Saccharomyces cerevisiae S288c, UniProt P32842); assay: Dose Response of Small Molecules that Regulate V-ATPase Proton Transport in Yeast using pHLuorin, Cherry Pick 2.; format: functional; conditions: read-out: EC50_MICROM
[5] = Luminescence Cell-Based Dose Response HTS to Identify Inhibitors of 5'UTR Stem-Loop Driven Prion Protein mRNA Translation in H4 Neuroglioblastoma Cells. [Related pubchem assays: 1827 (Project Summary), 1813 (Primary HTS)]; format: functional
BJ [6] = assay: cytotoxicity toward Ras-transformed BJeLR fibroblasts, dose response, cell-based, alamar blue fluorescence, cherrypicked samples (AID 2631); format: functional; conditions: Homo sapiens;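 further: confirmatory dose-response assay in RAS-dependent BJ fibroblasts engineered with TERT, LT and ST, with cytotoxicity read by fluorescence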
[7] = Luminescence-based dose response cell-based high throughput screening assay for cytotoxic compounds using the IEC-6 intestinal epithelial cell line. [Related pubchem assays: 1858 (Summary AID.), 1825 (Counterscreen.), 1907 (Confirmation screen.)]; format: functional
[8] = C. albicans growth with fluconazole, confirmation, fluorescence, retest (AID 2467); format: functional, cell-based
[9] = off-target signal loss in HeLa-CEM21 co-culture – HeLa F-luc CTL cells, cherry-picked, counter-screen for HIV-1 Env fusion inhibitor project, dose response (AID 652040); format: functional, cell-based;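 further: potency for signal decrease marking cytotoxic or nonspecific inhibition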
Fatty acid synthase [10] = target: T2, Fatty acid synthase (Homo sapiens, UniProt P49327); assay: FAS thioesterase domain inhibitors, dose response, biochemical, endpoint fluorescence intensity, uHTS hits (AID 624327); format: functional;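 further: fluorescence from hydrolysis of an O-methyl fluorescein acyl ester substrate by the enzyme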
[11] = NIH-3T3 fibroblast cytotoxicity, dose response, cytotoxicity control, cell-based, fluorescence, Alamar Blue, secondary assay (AID 2327); format: functional;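 further: NIH-3T3 mouse fibroblasts cultured with fluconazole at 8 µg/mL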
[12] = cytotoxicity in HEK-293T cells, dose response, cytotoxicity control for TCR NF-kB inhibitor project, luminescence, T-cell screen hits (AID 489026); format: functional, cell-based;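 further: cells exposed to compound about 14 hours before the viability readout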
[13] = target: Heat shock protein HSP 90-alpha (Homo sapiens, UniProt P07900); format: functional, organism-based
BJ [14] = assay: cytotoxicity toward BJ-TERT-LT-ST fibroblasts, dose response, cell-based, RAS-independent, luminescence (AID 1935); format: functional; conditions: Homo sapiens;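 further: BJ fibroblasts immortalized with TERT plus LT and ST oncogenes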
Fatty acid synthase [15] = target: T2, Fatty acid synthase; assay: FAS thioesterase domain inhibitors, dose response, biochemical, kinetic fluorescence intensity (AID 624326); format: functional;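 further: rate of fluorescence rise from hydrolysis of a fluorogenic O-methyl fluorescein ester substrate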
BJ [16] = assay: cytotoxicity toward BJ-TERT fibroblasts, dose response, cell-based, RAS-independent, luminescence (AID 1933); format: functional; conditions: Homo sapiens
[17] = inhibitors of firefly luciferase expression or activity, dose response, H4 neuroglioma cells, luminescence (AID 1990); format: functional, cell-based
[18] = inhibitors of HIV Env-driven cell fusion, dose response, cherry-pick (AID 652057); format: functional, cell-based
[19] = ZM109 Env clade C HIV-1 fusion inhibitors, dose response, HeLa effector, CEM target cells, luciferase, cherry-pick (AID 652058); format: functional, cell-based
[20] = target: Mitochondrial peptide methionine sulfoxide reductase (Bos taurus, UniProt P54149); format: functional;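 further: absorbance read-out, biochemical high-throughput dose-response screen for MsrA inhibitors, confirmatory; recombinant bovine MsrA coupled to E. coli TrxB with NADPH and selenocystamine; potency is for inhibitors of MsrA activity on DMSO substrate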
[21] = inhibitors of SNCA 5'UTR-driven reporter translation, confirmation, H4 neuroglioma cells, luminescence (AID 1988); format: functional, cell-based
[22] = target: T3, Heat shock factor protein 1 (Mus musculus, UniProt P38532); assay: inhibition of MG132-induced HSE-luciferase signal, confirmation, cell-based, NIH3T3, luminescence, dose retest (AID 2382); format: functional;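 further: NIH3T3 fibroblasts with HSF1-driven luciferase reporter stressed by proteasome inhibitor MG132; luminescence from HSF1-driven luciferase expression after 8 hours of MG132 stress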
T3 sequence (P38532 whole entry): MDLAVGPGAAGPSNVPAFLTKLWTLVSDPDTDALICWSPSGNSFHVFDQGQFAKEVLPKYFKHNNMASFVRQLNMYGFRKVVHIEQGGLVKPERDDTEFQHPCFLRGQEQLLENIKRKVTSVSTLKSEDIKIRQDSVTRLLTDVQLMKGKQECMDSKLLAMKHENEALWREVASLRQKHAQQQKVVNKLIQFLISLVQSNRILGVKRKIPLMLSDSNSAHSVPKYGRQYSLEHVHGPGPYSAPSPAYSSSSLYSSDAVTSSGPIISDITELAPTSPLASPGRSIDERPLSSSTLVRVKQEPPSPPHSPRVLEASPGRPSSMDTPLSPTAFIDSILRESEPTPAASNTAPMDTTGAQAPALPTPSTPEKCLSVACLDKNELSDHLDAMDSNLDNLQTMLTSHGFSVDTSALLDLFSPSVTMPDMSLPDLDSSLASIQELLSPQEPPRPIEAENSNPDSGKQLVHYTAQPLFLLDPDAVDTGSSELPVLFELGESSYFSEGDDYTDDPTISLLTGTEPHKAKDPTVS

[23] = target: T1, V-type proton ATPase subunit c'; assay: Dose Response of Small Molecules that Regulate V-ATPase Proton Transport in Yeast using pHLuorin, Cherry Pick 1. [Related pubchem assays (depositor defined):AID504622]; format: functional
[24] = cytotoxicity toward DRD oncogenic fibroblasts, dose response, cell-based, non-viral oncogenic, luminescence (AID 1934); format: functional; conditions: Homo sapiens
[25] = CEM21 lymphoblast cell cytotoxicity, dose response, cytotoxicity control for viral fusion inhibitor project, CellTiter-Glo luminescence, cherry-picked (AID 652042); format: functional, cell-based;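 further: potency for signal decrease meaning cytotoxicity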
BJ [26] = assay: cells; format: functional, cell-based; conditions: Homo sapiens
[27] = target: T4, Small ubiquitin-related modifier 1 (Homo sapiens, UniProt P63165); assay: inhibitors of SUMO1 partner interactions, dose response, biochemical, FRET (AID 624383); format: functional; conditions: read-out: IC50_Mean
[28] = target: T4, Small ubiquitin-related modifier 1; assay: inhibitors of SUMO1 peptide binding, dose response, biochemical, fluorescence polarization, uHTS hits (AID 624382); format: functional; conditions: read-out: IC50_Mean
[29] = target: DNA dC->dU-editing enzyme APOBEC-3G (Homo sapiens, UniProt Q9HC16); assay: Dose Response confirmation of small molecule APOBEC3G DNA Deaminase Inhibitors via a fluorescence-based single-stranded DNA deaminase assay. [Related pubchem assays (depositor defined):AID493012, AID493028]; format: functional
[30] = THP-1 cell cytotoxicity, dose response, cytotoxicity control for Vif-APOBEC3G degradation inhibitor project, THP-1 cells (AID 1117359); format: functional; conditions: Human immunodeficiency virus 1, THP-1
[31] = target: T5, Carboxy-terminal domain RNA polymerase II polypeptide A small phosphatase 1 (Homo sapiens, UniProt Q9GZU7); assay: inhibitors of CTDSP1, concentration-response testing, biochemical assay, absorbance-based, actives from ultra-high-throughput screening (AID 540297); format: functional
T5 sequence (Q9GZU7 whole entry): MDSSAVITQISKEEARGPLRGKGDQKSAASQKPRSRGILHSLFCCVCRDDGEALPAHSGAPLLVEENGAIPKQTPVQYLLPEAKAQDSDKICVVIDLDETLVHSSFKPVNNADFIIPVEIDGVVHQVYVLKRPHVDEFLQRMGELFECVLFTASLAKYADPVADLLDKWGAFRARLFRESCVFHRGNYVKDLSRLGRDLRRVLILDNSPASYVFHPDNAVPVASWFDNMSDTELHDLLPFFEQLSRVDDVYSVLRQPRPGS

[32] = target: Beta-adrenergic receptor kinase 1 (Homo sapiens, UniProt P25098); assay: aptamer displacement from bead-bound GRK2 – biochemical, cherry pick 1, bead flow cytometry, dose response (AID 504500)
[33] = target: DNA dC->dU-editing enzyme APOBEC-3A (Homo sapiens, UniProt P31941); assay: APOBEC3A DNA deaminase inhibitors, dose response, biochemical (AID 504722); format: functional
DNA dC->dU-editing enzyme APOBEC-3A, sequence (P31941 whole entry): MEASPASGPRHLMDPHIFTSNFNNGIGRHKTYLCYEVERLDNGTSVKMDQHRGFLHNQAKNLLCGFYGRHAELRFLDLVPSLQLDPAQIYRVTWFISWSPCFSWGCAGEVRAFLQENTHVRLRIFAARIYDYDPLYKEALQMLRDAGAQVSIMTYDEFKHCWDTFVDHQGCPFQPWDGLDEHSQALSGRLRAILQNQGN

T4 sequence (P63165 whole entry): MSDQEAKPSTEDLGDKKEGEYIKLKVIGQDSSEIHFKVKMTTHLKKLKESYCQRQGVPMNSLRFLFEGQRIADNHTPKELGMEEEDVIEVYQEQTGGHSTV
T2 sequence (P49327 whole entry, the tested form may be a part): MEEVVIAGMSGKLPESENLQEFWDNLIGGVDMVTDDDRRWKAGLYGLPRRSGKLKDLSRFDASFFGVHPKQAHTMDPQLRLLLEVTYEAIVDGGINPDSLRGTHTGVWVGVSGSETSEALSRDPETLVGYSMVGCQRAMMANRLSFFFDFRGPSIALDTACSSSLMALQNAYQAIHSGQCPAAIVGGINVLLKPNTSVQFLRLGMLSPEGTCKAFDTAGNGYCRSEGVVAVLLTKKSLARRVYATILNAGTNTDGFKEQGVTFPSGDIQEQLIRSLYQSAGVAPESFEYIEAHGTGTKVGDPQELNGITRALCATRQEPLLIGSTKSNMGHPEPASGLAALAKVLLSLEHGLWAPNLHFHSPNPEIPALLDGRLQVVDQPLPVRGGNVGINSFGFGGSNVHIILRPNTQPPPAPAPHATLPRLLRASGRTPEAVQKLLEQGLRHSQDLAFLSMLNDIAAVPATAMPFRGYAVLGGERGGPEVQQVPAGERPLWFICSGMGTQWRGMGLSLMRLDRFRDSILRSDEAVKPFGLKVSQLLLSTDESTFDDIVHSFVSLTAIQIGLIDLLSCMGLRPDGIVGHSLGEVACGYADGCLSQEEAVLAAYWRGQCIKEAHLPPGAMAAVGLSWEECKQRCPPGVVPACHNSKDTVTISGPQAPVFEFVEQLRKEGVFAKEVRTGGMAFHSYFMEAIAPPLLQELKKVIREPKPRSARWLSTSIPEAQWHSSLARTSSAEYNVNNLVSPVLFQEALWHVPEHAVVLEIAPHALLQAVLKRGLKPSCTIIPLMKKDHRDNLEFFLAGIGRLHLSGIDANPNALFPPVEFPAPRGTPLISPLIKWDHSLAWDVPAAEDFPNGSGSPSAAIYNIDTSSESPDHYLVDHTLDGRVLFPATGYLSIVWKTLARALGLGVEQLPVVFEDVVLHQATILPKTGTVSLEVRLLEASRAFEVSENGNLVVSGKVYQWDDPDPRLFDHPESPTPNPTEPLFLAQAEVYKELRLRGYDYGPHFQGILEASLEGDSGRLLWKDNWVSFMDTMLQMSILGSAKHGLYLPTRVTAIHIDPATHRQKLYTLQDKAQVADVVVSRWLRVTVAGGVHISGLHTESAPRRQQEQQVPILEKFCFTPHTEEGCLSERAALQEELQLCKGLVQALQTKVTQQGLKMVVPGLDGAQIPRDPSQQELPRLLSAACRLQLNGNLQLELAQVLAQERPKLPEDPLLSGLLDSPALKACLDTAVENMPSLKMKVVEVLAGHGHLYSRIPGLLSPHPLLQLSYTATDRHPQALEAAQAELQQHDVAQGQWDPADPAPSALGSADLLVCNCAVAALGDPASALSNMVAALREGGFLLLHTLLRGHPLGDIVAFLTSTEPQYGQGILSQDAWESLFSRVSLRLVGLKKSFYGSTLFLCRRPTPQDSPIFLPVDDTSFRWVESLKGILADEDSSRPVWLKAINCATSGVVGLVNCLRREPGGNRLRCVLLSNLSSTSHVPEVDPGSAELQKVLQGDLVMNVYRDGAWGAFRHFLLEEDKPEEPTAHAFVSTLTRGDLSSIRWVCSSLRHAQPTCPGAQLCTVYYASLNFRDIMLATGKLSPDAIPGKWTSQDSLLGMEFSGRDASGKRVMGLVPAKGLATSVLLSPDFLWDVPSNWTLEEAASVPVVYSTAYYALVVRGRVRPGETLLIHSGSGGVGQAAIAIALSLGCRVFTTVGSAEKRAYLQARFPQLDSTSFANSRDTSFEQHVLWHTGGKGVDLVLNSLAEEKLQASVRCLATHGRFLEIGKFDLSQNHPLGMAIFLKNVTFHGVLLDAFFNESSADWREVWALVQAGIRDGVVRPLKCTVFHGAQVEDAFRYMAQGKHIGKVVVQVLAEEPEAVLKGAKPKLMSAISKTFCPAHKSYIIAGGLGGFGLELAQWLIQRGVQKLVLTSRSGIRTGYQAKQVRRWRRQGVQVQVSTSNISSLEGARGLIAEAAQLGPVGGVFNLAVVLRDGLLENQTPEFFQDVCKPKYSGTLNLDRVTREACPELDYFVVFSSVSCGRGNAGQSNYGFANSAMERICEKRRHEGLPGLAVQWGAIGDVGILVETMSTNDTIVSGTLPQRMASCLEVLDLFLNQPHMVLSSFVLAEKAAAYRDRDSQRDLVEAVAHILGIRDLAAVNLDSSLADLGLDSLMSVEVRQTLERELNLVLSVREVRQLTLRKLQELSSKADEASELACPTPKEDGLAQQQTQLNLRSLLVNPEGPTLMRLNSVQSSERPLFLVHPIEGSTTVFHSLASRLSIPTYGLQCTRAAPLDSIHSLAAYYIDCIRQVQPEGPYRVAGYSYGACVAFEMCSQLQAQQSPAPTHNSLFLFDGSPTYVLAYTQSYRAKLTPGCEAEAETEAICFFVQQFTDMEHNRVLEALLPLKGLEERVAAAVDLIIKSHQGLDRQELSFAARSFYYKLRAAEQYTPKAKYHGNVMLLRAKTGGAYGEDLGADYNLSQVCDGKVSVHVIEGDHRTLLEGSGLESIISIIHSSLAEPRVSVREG
T1 sequence (P32842 whole entry): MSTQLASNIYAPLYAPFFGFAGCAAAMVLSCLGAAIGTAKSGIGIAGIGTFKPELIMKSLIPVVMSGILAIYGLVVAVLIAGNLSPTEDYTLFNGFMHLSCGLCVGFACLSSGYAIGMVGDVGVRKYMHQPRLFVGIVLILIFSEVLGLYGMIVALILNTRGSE
5-hydroxytryptamine receptor 2A, sequence (P35363 whole entry): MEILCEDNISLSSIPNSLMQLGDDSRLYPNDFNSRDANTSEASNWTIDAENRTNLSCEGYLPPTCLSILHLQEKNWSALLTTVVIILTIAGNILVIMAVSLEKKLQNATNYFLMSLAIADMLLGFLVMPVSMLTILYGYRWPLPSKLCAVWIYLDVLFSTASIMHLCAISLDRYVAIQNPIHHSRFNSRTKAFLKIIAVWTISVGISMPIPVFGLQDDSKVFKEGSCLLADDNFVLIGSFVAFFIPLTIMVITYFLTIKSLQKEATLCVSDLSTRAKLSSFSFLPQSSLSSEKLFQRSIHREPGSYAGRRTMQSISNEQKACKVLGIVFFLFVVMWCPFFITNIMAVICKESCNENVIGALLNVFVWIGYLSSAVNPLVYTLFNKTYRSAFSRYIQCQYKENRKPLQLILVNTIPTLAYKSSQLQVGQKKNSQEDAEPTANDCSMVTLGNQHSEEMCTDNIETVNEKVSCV
DNA dC->dU-editing enzyme APOBEC-3G, sequence (Q9HC16 whole entry): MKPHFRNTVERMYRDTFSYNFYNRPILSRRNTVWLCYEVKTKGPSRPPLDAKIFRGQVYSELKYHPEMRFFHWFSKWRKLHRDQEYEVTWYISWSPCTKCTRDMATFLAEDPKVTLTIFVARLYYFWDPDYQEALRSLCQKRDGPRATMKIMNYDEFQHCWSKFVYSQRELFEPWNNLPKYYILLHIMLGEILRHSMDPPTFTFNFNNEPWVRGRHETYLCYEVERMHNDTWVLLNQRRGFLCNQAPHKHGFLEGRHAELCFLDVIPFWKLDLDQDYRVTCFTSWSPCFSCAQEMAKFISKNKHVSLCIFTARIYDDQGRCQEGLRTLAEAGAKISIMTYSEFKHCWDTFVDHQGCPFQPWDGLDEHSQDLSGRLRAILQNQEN
Beta-adrenergic receptor kinase 1, sequence (P25098 whole entry): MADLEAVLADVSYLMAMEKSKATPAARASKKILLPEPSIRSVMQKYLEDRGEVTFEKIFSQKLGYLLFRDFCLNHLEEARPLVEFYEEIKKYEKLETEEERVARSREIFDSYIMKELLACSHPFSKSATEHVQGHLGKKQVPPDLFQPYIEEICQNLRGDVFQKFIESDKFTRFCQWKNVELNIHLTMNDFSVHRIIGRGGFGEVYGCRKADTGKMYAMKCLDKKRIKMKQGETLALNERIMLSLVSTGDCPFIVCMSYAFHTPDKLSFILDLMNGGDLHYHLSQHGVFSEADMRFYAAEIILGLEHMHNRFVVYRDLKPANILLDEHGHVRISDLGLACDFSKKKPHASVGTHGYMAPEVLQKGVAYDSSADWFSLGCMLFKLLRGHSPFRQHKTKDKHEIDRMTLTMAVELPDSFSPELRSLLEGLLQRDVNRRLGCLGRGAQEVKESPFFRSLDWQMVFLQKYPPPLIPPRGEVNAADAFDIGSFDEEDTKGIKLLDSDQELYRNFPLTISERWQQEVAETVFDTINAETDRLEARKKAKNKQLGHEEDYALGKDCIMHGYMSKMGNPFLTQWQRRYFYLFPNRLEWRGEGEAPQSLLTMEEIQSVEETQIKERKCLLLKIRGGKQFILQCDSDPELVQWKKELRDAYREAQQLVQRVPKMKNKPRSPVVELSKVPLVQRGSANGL
Beta-2 adrenergic receptor, sequence (P07550 whole entry): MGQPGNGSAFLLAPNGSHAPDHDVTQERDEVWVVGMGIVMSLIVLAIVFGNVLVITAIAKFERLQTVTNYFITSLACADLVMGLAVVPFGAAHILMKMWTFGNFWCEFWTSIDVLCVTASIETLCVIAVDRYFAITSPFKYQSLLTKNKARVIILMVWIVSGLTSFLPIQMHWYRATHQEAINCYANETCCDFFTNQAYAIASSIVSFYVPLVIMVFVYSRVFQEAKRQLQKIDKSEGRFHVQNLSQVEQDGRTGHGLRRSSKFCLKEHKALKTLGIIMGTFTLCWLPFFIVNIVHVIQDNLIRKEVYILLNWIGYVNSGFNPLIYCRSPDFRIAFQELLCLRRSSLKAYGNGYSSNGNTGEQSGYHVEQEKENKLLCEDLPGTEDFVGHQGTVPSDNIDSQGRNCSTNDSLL

CC(=O)N1CCc2cc(C(=O)CN3CCN(c4cccc(Cl)c4)CC3)ccc21
EC50 [1]: 47.2 nM (active) | EC50 [2]: 133 nM (active) | EC50 (Mu-type opioid receptor): 92500 nM (inactive)

CCOC(=O)NN=C1c2ccccc2-c2nc3nonc3nc21
AC50 [3]: 3360 nM (active) | EC50 [4]: 2370 nM (active) | EC50 [5]: 593 nM (active) | EC50 (BJ [6]): 1860 nM (active) | IC50 [7]: 223 nM (active) | EC50 [8]: 83 nM (active) | AC50 [9]: 3560 nM (active) | IC50 (Fatty acid synthase [10]): 1670 nM (active) | EC50 [11]: 1710 nM (active) | IC50 [12]: 3200 nM (active) | AC50 [13]: 1260 nM (active) | EC50 (BJ [14]): 1350 nM (inconclusive) | IC50 (Fatty acid synthase [15]): 859 nM (active) | EC50 (BJ [16]): 2330 nM (active) | EC50 [17]: 234 nM (active) | AC50 [18]: 4410 nM (active) | AC50 [19]: 2960 nM (active) | IC50 [20]: 155000 nM (inactive) | EC50 [21]: 131 nM (active) | EC50 [22]: 3640 nM (active) | EC50 [23]: 27100 nM (active) | EC50 [24]: 2390 nM (active) | AC50 [25]: 1700 nM (active) | EC50 (BJ [26]): 587 nM (inconclusive)

C=C(C)C(=O)Nc1cccc(C2=NOC3(C2)C[C@@H](C(N)=O)N(C(=O)CC(c2ccccc2)c2ccccc2)C3)c1 (some centres undefined)
IC50 [27]: 5400 nM (active) | IC50 [28]: > 66600 nM (inactive) | IC50 [29]: 15300 nM (active) | CC50 [30]: > 40000 nM (active) | IC50 [31]: 6380 nM (active) | EC50 [32]: 1940 nM (active) | IC50 [33]: > 100000 nM (inactive)
